Data on five compounds can be found in PMC5795618 (Molecular pharmaceutics, 2017).

Like-named read-outs stand apart in the source and are kept apart here.

The target of data set [1] is recombinant human GCPII protein (Homo sapiens, UniProt Q04609). The experiment in a line: GCPII radioenzymatic activity assay. Format: biochemical. Conditions: read-out: IC50(±SEM).
The conditions of data set [2]: rats; for tissue/plasma ratio: AUC tissue/AUC plasma of 2-PMPA.
For data set [3] the following is noted: rats; for tissue/plasma ratio: AUC tissue/AUC plasma of 2-PMPA. The source holds these as a separate data set.
Data set [4] is described as follows: Plasma stability of 2-PMPA prodrugs, human plasma. The data set is classed as in vitro ADME. The settings on record: 10 μM, 37 °C.
The conditions of data set [5]: equivalent 2-PMPA administration, cited from earlier work.
A further data set has as its system GCPII. Conditions: cited from earlier work.
For data set [6] the following is noted: cited from earlier work.
The conditions of data set [7]: primates, IN 2-PMPA 30 mg/kg; cited from earlier work.

Chain of recombinant human GCPII protein (Q04609 whole entry): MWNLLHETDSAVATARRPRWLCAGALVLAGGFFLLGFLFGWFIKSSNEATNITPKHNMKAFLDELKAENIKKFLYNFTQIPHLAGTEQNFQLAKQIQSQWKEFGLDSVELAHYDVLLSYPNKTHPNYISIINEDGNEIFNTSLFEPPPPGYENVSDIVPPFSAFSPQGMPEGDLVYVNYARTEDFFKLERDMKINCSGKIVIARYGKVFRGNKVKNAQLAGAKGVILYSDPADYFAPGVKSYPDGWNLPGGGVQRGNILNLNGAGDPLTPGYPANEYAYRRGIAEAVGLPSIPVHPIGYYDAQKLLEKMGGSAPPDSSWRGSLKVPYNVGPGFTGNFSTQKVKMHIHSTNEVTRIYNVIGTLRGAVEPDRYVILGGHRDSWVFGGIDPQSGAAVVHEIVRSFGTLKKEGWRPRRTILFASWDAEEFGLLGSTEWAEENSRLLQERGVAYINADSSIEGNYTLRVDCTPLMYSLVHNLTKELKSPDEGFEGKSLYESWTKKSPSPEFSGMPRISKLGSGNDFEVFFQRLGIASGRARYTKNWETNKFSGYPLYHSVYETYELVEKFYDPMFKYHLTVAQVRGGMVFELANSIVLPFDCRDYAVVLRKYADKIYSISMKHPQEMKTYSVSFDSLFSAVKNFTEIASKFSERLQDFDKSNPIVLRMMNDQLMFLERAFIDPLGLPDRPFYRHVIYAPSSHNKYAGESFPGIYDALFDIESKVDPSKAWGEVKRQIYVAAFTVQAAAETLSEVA

`CC(=O)Oc1ccc(COC(=O)CCC(CP(=O)(O)O)C(=O)O)cc1` (stereo not shown) [Compound 1, γ-(4-acetoxybenzyl)-2-PMPA]: the half-maximal inhibitory concentration (IC50) (commonly the concentration at which inhibition is half-maximal) in data set [1] was found to be 3 ± 0.2 nM. The tissue/plasma ratio in data set [2] (cerebellum, IV) was 0.04; in data set [2] (cortex, IV), 0.04; in data set [2] (olfactory bulb, IV) it was 0.03; in data set [2] (plasma, IV) it was 1; in data set [2] (sciatic nerve, IV) it was 0.21; in data set [3] (cerebellum, IN) it was 0.26. Further, the tissue/plasma ratio worked out at 2.2 in data set [3] (olfactory bulb, IN); 1 in data set [3] (plasma, IN); 0.84 in data set [3] (sciatic nerve, IN). Besides, the results for the “fold lower 2-PMPA level after IV as compared to IN” value in data set [2] (cerebellum), in data set [2] (cortex) and in data set [2] (sciatic nerve) were 4 fold, 4.5 fold and 5 fold, respectively. Also, the “intact prodrug in brain or sciatic nerve” value in data set [2] (IV, any time point) is “No intact prodrug was quantifiable”; in data set [3] (IN, any time point), “No intact prodrug was quantifiable”. The Cmax – broadly, the highest concentration seen after dosing – in data set [2] (read-out: intact prodrug Cmax in plasma, IV, 10 mg/kg equivalent) was 0.2 µM; in data set [3] (read-out: intact prodrug Cmax in plasma, IN, 10 mg/kg equivalent), 22 µM. For the same compound, in data set [3] (IN compound 1 versus equivalent dose of 2-PMPA), the “improvement of sciatic nerve to plasma ratio over free 2-PMPA” value stood at 7 fold. For the same compound, in data set [3] (IN, 10 mg/kg equivalent), the “intact prodrug AUC in plasma” value was 8.04 µM·h. The “Plasma stability % remaining @60 min Human” value in data set [4] worked out at 42%.

As to `CCCCOC(=O)CCC(CP(=O)(O)O)C(=O)O` (stereo not shown) [Compound 3], the IC50 in data set [1] (GCPII inhibition) is 1 ± 0.1 nM.

For the compound `O=C(O)CCC(CP(=O)(O)O)C(=O)O` (stereo not shown) [Compound 2-PMPA, 2-(Phosphonomethyl)pentanedioic acid], the “plasma exposure (AUC)” value in data set [5] (IN route) was 79.1 µM·h; in data set [5] (intraperitoneal (IP) route) it was 77.1 µM·h. Further, the IC50 in the data set on GCPII was […]. In data set [6], the “oral bioavailability (F)” value is reported as below 2%. Further, the “2-PMPA concentration in CSF” value in data set [7] is […].

As for `CCCCCCCCOC(=O)CCC(CP(=O)(O)O)C(=O)O` (stereo not shown) [Compound 5], the IC50 in data set [1] (GCPII inhibition) turned out to be 2 ± 0.2 nM.

Regarding `O=C(CCC(CP(=O)(O)O)C(=O)O)OCc1ccccc1` (stereo not shown) [Compound 4], the concentration for half-maximal inhibition (IC50) in data set [1] (GCPII inhibition) turned out to be 20 ± 1 nM.
